Assay results taken from PMC4849758, “Rational Structure-Based Rescaffolding Approach to De Novo Design of Interleukin 10 (IL-10) Receptor-1 Mimetics” (PLoS ONE, 2016).
Bridge positions count the residues as written; N and C are the ends. Square brackets hold non-standard residues; d marks the D form. Peptide text beside a SMILES is read from it. * marks the point of attachment. Trp(5-OH) = N[C@@H](Cc1c[nH]c2ccc(O)cc12)C(=O)O; Butanoyl(4-guanidino) = N=C(N)NCCCC(=O)*

Key:
mIL-10C149Y [1] = molecular target: T1, mIL-10C149Y (Mus musculus, UniProt P18893, C167Y); experiment: Thermal denaturation by circular dichroism (CD), Kd estimate from two-state unfolding model; type: binding, murine; details: 4.5 μM mimetic; for increase of native protein structure in presence of mimetic, percentage of the total change in the CD signal: at 332 K, average CD signal 215-230 nm, 2 μM mIL-10C149Y; for Kd: calculated from thermal denaturation CD data, 2 μM mIL-10C149Y dimer, two-state unfolding model, lower affinity limit reported
T1 construct: His8 tag (LEHHHHHHHH) from pET41b(+) (C); made in house
T1 sequence (P18893 19-178 C167Y): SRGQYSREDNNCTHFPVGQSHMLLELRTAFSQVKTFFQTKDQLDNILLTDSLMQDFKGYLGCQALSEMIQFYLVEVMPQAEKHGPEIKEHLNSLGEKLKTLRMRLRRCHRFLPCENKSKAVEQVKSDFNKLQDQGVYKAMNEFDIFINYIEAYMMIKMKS
Experimental: M1 was chemically synthesized, and its experimental binding affinity towards IL-10 was assessed by thermal stability measurements using circular dichroism (CD) and fluorescence (see materials and methods). For these studies, we used the readily available murine IL-10 mutant mIL-10C149Y in which Cys149 was replaced by the corresponding Tyr residue of the human protein, as it was previously shown to enhance protein refolding yield. Furthermore, this tyrosine would enhance the sensitivity of tryptophan fluorescence measurements (i.e. as stated above, it can act as energy donor for the tryptophan residue introduced as label in the mimetics).
Complex formation between M1 and mIL-10C149Y was determined by thermal denaturation using CD and the well-known negative ellipticity of IL-10 between 200 to 300 nm. […] The obtained curves shift to higher temperatures in the presence of M1. The shift is due to a lower degree of unfolded protein at any temperature in the presence of mimetic M1 as compared to the denaturation of mIL-10C149Y alone. […] At 332 K, the presence of M1 increased the native protein structure by 8%.
CD spectra were recorded with a J-815 instrument (Jasco, Gross-Umstadt, Germany) from 195 to 300 nm in 1-cm cuvettes at concentrations of 2 μM of mIL-10C149Y (dimer) and 4.5 μM of mimetics M1-M4. Ellipticity θ was recorded in millidegrees. Samples were heated from 298 to 364 K at a rate of 2 K/min under constant stirring to determine stabilization of IL-10/mimetic complexes. Estimates of binding affinities were derived with the assumption of a two state unfolding of mIL-10C149Y. The mimetics were assumed to stabilize exclusively the folded state. These simplifications allow applying equilibrium thermodynamics, such that the fraction Sn of the native state of mIL-10C149Y can be approximated: Sn = (1+ [M] Kd^-1 +Ku)^-1. Kd is the estimated dissociation constant of the mimetic, [M] its concentration. Ku is the temperature-dependent unfolding equilibrium constant (Ku = [denatured]/[native]) as measured by the unfolding curve of mIL-10C149Y in the absence of mimetics. […] In this case, the measured CD curves would be actually compatible with much higher mimetic affinities, because a local stabilization of the mimetic binding epitope on mIL-10C149Y is not counted as binding in the applied two state model but it is very likely to occur. For consistency, we have not explored the higher affinity limit that would still be compatible with the data. Instead, we report only the lower affinity range that complies with the assumptions, in order to prevent bias for overestimated mimetic affinities. […] Absolute thermodynamic parameters could only be obtained by isothermal titration calorimetry with the most promising mimetics. This of course required the initial confirmation of the binding of the precursor molecules which was accomplished by CD and Fluorescence Spectroscopy. Fluorescence emission at 360 nm was monitored simultaneously with the CD scan (the measuring beam served as the excitation light) using a second monochromator and photomultiplier in 90° geometry with respect to the CD absorption path. Thereby, temperature-dependent excitation spectra of the tryptophan at position two in the synthetic IL-10R1 mimetics were additionally obtained with the CD data acquisition.

mIL-10C149Y [2] = molecular target: T1, mIL-10C149Y; experiment: Isothermal titration calorimetry (ITC); type: binding, murine; details: for TΔS, entropic component of binding / ΔH, enthalpic term of binding: ITC; for TΔS, entropic component of binding / ΔH, enthalpic term of binding / Kd: 298 K; for Kd: inferred from ITC thermodynamic data, single site model, variable stoichiometry; for fold increase of binding affinity with respect to M2-M4 / fold increase of binding with respect to M1: ratio of Kd values; for fold increase of binding with respect to M1: M1 Kd from thermal denaturation
From the text: Further ligand optimization was accomplished by the introduction of an additional N-terminal H-bond acceptor such as Gln or Glu (M5, M6), which would allow interactions with the cationic side chains of IL-10R27 and IL-10K34 (helix A) or with IL-10N148 (helix F’) (Fig 2A). Favourable energies obtained for the interaction of IL-10 with an aliphatic carboxylate chemical probe supported this rationale. Furthermore, residues IL-10L46 (loop AB) and IL-10I145 (helix F’) would additionally contribute with van der Waals interactions with the aliphatic moieties of the side chains of the residues introduced at the N-teminus. […] Furthermore, these measurements supported the expected stoichiometry 2:1 mimetic:dimer-protein binding ratio as previously observed for the IL-10R1/IL-10 complex.
The final constant heat signals were subtracted to correct for the solution enthalpy of the respective IL-10R1 mimetics. The resulting integrated heat curve was analyzed with the associated software Origin 9 [74] allowing a variable stoichiometry but restriction to a single Kd value (identical binding sites of the dimeric protein).

CC(=O)N[C@H]1CCCCNC(=O)C[C@@H](C(=O)N[C@H]2CCCCNC(=O)C[C@@H](C(=O)N[C@@H](CCCNC(=N)N)C(=O)N[C@@H](C)C(N)=O)NC(=O)[C@H](C(C)C)NC(=O)[C@H](CCCCN)NC(=O)[C@H](CCCNC(=N)N)NC2=O)NC(=O)[C@H](Cc2ccc(O)cc2)NC(=O)[C@H](CCCNC(=N)N)NC(=O)[C@H](Cc2c[nH]c3ccccc23)NC1=O [M1] (Ac-KWRYDKRKVDRA-NH2; lactam 1-5, 6-10)
increase of native protein structure in presence of mimetic, percentage of the total change in the CD signal (mIL-10C149Y [1]): 8% | Kd (mIL-10C149Y [1]): > 30 µM

CC(C)[C@@H]1NC(=O)[C@H](CCCCN)NC(=O)[C@H](CCCNC(=N)N)NC(=O)[C@@H](NC(=O)[C@@H]2CC(=O)NCCCC[C@H](NC(=O)CCCNC(=N)N)C(=O)N[C@@H](Cc3c[nH]c4ccccc34)C(=O)N[C@@H](CCCNC(=N)N)C(=O)N[C@@H](Cc3ccc(O)cc3)C(=O)N2)CCCCNC(=O)C[C@@H](C(=O)N[C@@H](CCCNC(=N)N)C(=O)N[C@@H](C)C(N)=O)NC1=O [M2] ({Butanoyl(4-guanidino)}-KWRYDKRKVDRA-NH2; lactam 1-5, 6-10)
increase of native protein structure in presence of mimetic, percentage of the total change in the CD signal (mIL-10C149Y [1]): 16% | Kd (mIL-10C149Y [1]): 5 µM

CC(C)[C@@H]1NC(=O)[C@H](CCCCN)NC(=O)[C@H](CCCNC(=N)N)NC(=O)[C@@H](NC(=O)[C@@H]2CC(=O)NCCCC[C@H](NC(=O)CCCNC(=N)N)C(=O)N[C@@H](Cc3c[nH]c4ccc(O)cc34)C(=O)N[C@@H](CCCNC(=N)N)C(=O)N[C@@H](Cc3ccc(O)cc3)C(=O)N2)CCCCNC(=O)C[C@@H](C(=O)N[C@@H](CCCNC(=N)N)C(=O)N[C@@H](C)C(N)=O)NC1=O [M3] ({Butanoyl(4-guanidino)}-K[Trp(5-OH)]RYDKRKVDRA-NH2; lactam 1-5, 6-10)
increase of native protein structure in presence of mimetic, percentage of the total change in the CD signal (mIL-10C149Y [1]): 12% | Kd (mIL-10C149Y [1]): 6.7 µM

CC(=O)N[C@@H](CCCNC(=N)N)C(=O)N[C@H]1CCCCNC(=O)C[C@@H](C(=O)N[C@H]2CCCCNC(=O)C[C@@H](C(=O)N[C@@H](CCCNC(=N)N)C(=O)N[C@@H](C)C(N)=O)NC(=O)[C@H](C(C)C)NC(=O)[C@H](CCCCN)NC(=O)[C@H](CCCNC(=N)N)NC2=O)NC(=O)[C@H](Cc2ccc(O)cc2)NC(=O)[C@H](CCCNC(=N)N)NC(=O)[C@H](Cc2c[nH]c3ccccc23)NC1=O [M4] (Ac-RKWRYDKRKVDRA-NH2; lactam 2-6, 7-11)
increase of native protein structure in presence of mimetic, percentage of the total change in the CD signal (mIL-10C149Y [1]): 11% | Kd (mIL-10C149Y [1]): 8.4 µM

CC(=O)N[C@@H](CCC(=O)O)C(=O)N[C@@H](CCCCN)C(=O)N[C@H]1CCCCNC(=O)C[C@@H](C(=O)N[C@H]2CCCCNC(=O)C[C@@H](C(=O)N[C@@H](CCCNC(=N)N)C(=O)N[C@@H](C)C(N)=O)NC(=O)[C@H](C(C)C)NC(=O)[C@H](CCCCN)NC(=O)[C@H](CCCNC(=N)N)NC2=O)NC(=O)[C@H](Cc2ccc(O)cc2)NC(=O)[C@H](CCCNC(=N)N)NC(=O)[C@H](Cc2c[nH]c3ccccc23)NC1=O [M5] (Ac-EKKWRYDKRKVDRA-NH2; lactam 3-7, 8-12)
TΔS, entropic component of binding (mIL-10C149Y [2]): 9.5 kcal/mol | ΔH, enthalpic term of binding (mIL-10C149Y [2]): -0.5 kcal/mol | Kd (mIL-10C149Y [2]): 0.07 ± 0.02 µM | fold increase of binding affinity with respect to M2-M4 (mIL-10C149Y [2]): more than 70 fold | fold increase of binding with respect to M1 (mIL-10C149Y [2]): more than 400 fold

CC(=O)N[C@@H](CCC(=O)O)C(=O)N[C@@H](CCCNC(=N)N)C(=O)N[C@H]1CCCCNC(=O)C[C@@H](C(=O)N[C@H]2CCCCNC(=O)C[C@@H](C(=O)N[C@@H](CCCNC(=N)N)C(=O)N[C@@H](C)C(N)=O)NC(=O)[C@H](C(C)C)NC(=O)[C@H](CCCCN)NC(=O)[C@H](CCCNC(=N)N)NC2=O)NC(=O)[C@H](Cc2ccc(O)cc2)NC(=O)[C@H](CCCNC(=N)N)NC(=O)[C@H](Cc2c[nH]c3ccccc23)NC1=O [M6] (Ac-ERKWRYDKRKVDRA-NH2; lactam 3-7, 8-12)
TΔS, entropic component of binding (mIL-10C149Y [2]): 9.5 kcal/mol | ΔH, enthalpic term of binding (mIL-10C149Y [2]): -0.5 kcal/mol | Kd (mIL-10C149Y [2]): 0.04 ± 0.02 µM | fold increase of binding affinity with respect to M2-M4 (mIL-10C149Y [2]): more than 70 fold | fold increase of binding with respect to M1 (mIL-10C149Y [2]): more than 400 fold
